What was measured:
blackgrass = experiment: Test C pre-/postemergence test; type: in vivo, Alopecurus myosuroides
Text: (§1) Seeds of plant species selected from blackgrass (Alopecurus myosuroides), downy brome (Bromus tectorum), green foxtail (Setaria viridis), Italian ryegrass (Lolium multiflorum), wheat (Triticum aestivum), wild oat (Avena fatua), catchweed bedstraw (Galium aparine), Russian thistle (Salsola kali), […] (Cynodon dactylon), Surinam grass (Brachiaria decumbens), cocklebur (Xanthium strumarium), corn (Zea mays), crabgrass (Digitaria sanguinalis), woolly cupgrass (Eriochloa villosa), giant foxtail (Setaria faberii), Goosegrass (Eleusin indica), johnsongrass (Sorghum halepense), kochia (Kochia scoparia), lambsquarters (Chenopodium album), morningglory (Ipomoea coccinea), eastern black nightshade (Solanum ptycanthum), yellow nutsedge (Cyperus esculentus), pigweed (Amaranthus retroflexus), common ragweed (Ambrosia elation), soybean (Glycine max), common (oilseed) sunflower (Helianthus annuus), and velvetleaf (Abutilon theophrasti) were planted and treated preemergence with test chemicals formulated in a non-phytotoxic solvent mixture which included a surfactant. At the same time, plants selected from these crop and weed species and also winter barley (Hordeum vulgare), canarygrass (Phalaris minor), and chickweed (Stellaria media) were treated with postemergence applications of some of the test chemicals formulated in the same manner. Plants ranged in height from 2 to 18 cm (1- to 4-leaf stage) for postemergence treatments. […] At time of treatment, test pots were flooded to 3 cm above the soil surface, treated by application of test compounds directly to the paddy water, and then maintained at that water depth for the duration of the test. […] A dash (-) response means no test result.

corn = experiment: Test C pre-/postemergence test; type: in vivo, Zea mays
Text: as §1

woolly cupgrass = experiment: Test C pre-/postemergence test; type: in vivo, Eriochloa villosa
Text: as §1

bermudagrass = experiment: Test F preemergence test; type: in vivo, Cynodon dactylon; conditions: scale 0 to 100
Text: (§2) Seeds of plant species selected from bermudagrass (Cynodon dactylon), Surinam grass (Brachiaria decumbens), large crabgrass (Digitaria sanguinalis), green foxtail (Setaria viridis), goosegrass (Eleusine indica), johnsongrass (Sorghum halepense), kochia (Kochia scoparia), pitted morningglory (Ipomoea lacunosa), purple nutsedge (Cyperus rotundus), common ragweed (Ambrosia elation), mustard (Brassica nigra), guineagrass (Panicum maximum), […] (Paspalum dilatatum), barnyardgrass (Echinochloa crus-galli), southern sandbur (Cenchrus echinatus), common sowthistle (Sonchus oleraceous), prickly […] spinosa), Italian ryegrass (Lolium multiflorum), common purslane (Portulaca oleracea), broadleaf signalgrass (Brachiaria platyphylla), common groundsel (Senecio vulgaris), common chickweed (Stellaria media), Virginia dayflower (Commelina virginica), annual bluegrass (Poa annua), naked crabgrass (Digitaria nuda), […] cochinchinensis), quackgrass (Elytrigia repens), Canada horseweed (Conyza canadensis), field bindweed (Convolvulus arvensis), […] (Bidens bipinnata), common mallow (Malva sylvestris), Russian thistle (Salsola kali), and sugarcane (Saccharum officinarum) were planted and treated preemergence with test chemicals formulated in a non-phytotoxic solvent mixture which included a surfactant. At a different time, sugarcane was treated with postemergence applications of some of the test chemicals formulated in the same manner. Plants were approximately 3- to 4-leaf stage for the postemergence treatments. Treated plants and controls were maintained in a greenhouse for 14 to 21 days, after which time all species were compared to controls and visually evaluated. […] A dash (-) response means no test result.

Surinam grass = experiment: Test F preemergence test; type: in vivo, Brachiaria decumbens; conditions: scale 0 to 100
Text: as §2

large crabgrass = experiment: Test F preemergence test; type: in vivo, Digitaria sanguinalis; conditions: scale 0 to 100
Text: as §2

goosegrass = experiment: Test F preemergence test; type: in vivo, Eleusine indica; conditions: scale 0 to 100
Text: as §2

kochia = experiment: Test F preemergence test; type: in vivo, Kochia scoparia; conditions: scale 0 to 100
Text: as §2

purple nutsedge = experiment: Test F preemergence test; type: in vivo, Cyperus rotundus; conditions: scale 0 to 100
Text: as §2

mustard = experiment: Test F preemergence test; type: in vivo, Brassica nigra; conditions: scale 0 to 100
Text: as §2

barnyardgrass = experiment: Test F preemergence test; type: in vivo, Echinochloa crus-galli; conditions: scale 0 to 100
Text: as §2

southern sandbur = experiment: Test F preemergence test; type: in vivo, Cenchrus echinatus; conditions: scale 0 to 100
Text: as §2

Italian ryegrass = experiment: Test F preemergence test; type: in vivo, Lolium multiflorum; conditions: scale 0 to 100
Text: as §2

broadleaf signalgrass = experiment: Test F preemergence test; type: in vivo, Brachiaria platyphylla; conditions: scale 0 to 100
Text: as §2

quackgrass = experiment: Test F preemergence test; type: in vivo, Elytrigia repens; conditions: scale 0 to 100
Text: as §2

[1] = 31 g ai/ha, Preemergence, scale 0 to 100
[2] = 62 g ai/ha, preemergence, scale 0 (no effect) to 100 (complete control)
[3] = Postemergence, 62 g ai/ha, scale 0 to 100, 0 no effect, 100 complete control
[4] = Postemergence, 125 g ai/ha, scale 0 to 100, 0 no effect, 100 complete control
[5] = Postemergence, 250 g ai/ha, scale 0 to 100, 0 no effect, 100 complete control
[6] = preemergence, 125 g ai/ha, scale 0 (no effect) to 100 (complete control)
[7] = 62 g ai/ha, Preemergence, scale 0 to 100
[8] = 125 g ai/ha, preemergence, scale 0 (no effect) to 100 (complete control)
[9] = Preemergence, 31 g ai/ha, scale 0 to 100 (0 no effect, 100 complete control)
[10] = preemergence, 250 g ai/ha, scale 0 (no effect) to 100 (complete control)

Cc1cc[n+]([O-])c([S+]([O-])Cc2c(C(F)(F)F)nn(C)c2OC(F)F)c1 (stereo not drawn) [Compound 1]
70: Blackgrass plant response rating (blackgrass; [1]) | Plant response rating, Cupgrass, Woolly (woolly cupgrass; [5]) | Plant response rating, Crabgrass, Large (large crabgrass; Preemergence, 31 g ai/ha) | Plant response rating, Goosegrass (goosegrass; Preemergence, 16 g ai/ha)
65: Quackgrass plant response rating (quackgrass; 62 g ai/ha, Preemergence)
25: Plant response rating, Goosegrass (goosegrass; 8 g ai/ha, preemergence) | Plant response rating, Signalgrass (broadleaf signalgrass; Preemergence, 31 g ai/ha)
5: Plant response rating, Corn (corn; [5]) | Plant response rating, Barnyardgrass (barnyardgrass; 8 g ai/ha, preemergence)
0: Plant response rating (0 to 100), Blackgrass (blackgrass; Postemergence, 31 g ai/ha) | Plant response rating, Blackgrass (blackgrass; [3]) | Plant response rating, Blackgrass (blackgrass; [4]) | Plant response rating, Blackgrass (blackgrass; [5]) | Plant response rating (0 to 100), Corn (corn; Postemergence, 31 g ai/ha) | Plant response rating, Corn (corn; [3]) | Plant response rating, Corn (corn; [4]) | Plant response rating (0 to 100), Cupgrass, Woolly (woolly cupgrass; Postemergence, 31 g ai/ha) | Plant response rating, Cupgrass, Woolly (woolly cupgrass; [3]) | Plant response rating, Bermudagrass (bermudagrass; 8 g ai/ha, preemergence) | Plant response rating, Surinam Grass (Surinam grass; 8 g ai/ha, preemergence) | Plant response rating, Surinam Grass (Surinam grass; 16 g ai/ha, preemergence) | Plant response rating, Surinam Grass (Surinam grass; Preemergence, 31 g ai/ha) | Plant response rating, Crabgrass, Large (large crabgrass; 8 g ai/ha, preemergence) | Plant response rating, Kochia (kochia; 8 g ai/ha, preemergence) | Plant response rating, Kochia (kochia; Preemergence, 16 g ai/ha) | Plant response rating, Purple Nutsedge (purple nutsedge; 8 g ai/ha, preemergence) | Plant response rating, Purple Nutsedge (purple nutsedge; Preemergence, 16 g ai/ha) | Plant response rating, Black Mustard (mustard; 8 g ai/ha, preemergence) | Plant response rating, Black Mustard (mustard; Preemergence, 16 g ai/ha) | Plant response rating, Sandbur (southern sandbur; 8 g ai/ha, preemergence) | Plant response rating, Ryegrass, Italian (Italian ryegrass; 8 g ai/ha, preemergence) | Plant response rating, Ryegrass, Italian (Italian ryegrass; Preemergence, 16 g ai/ha) | Plant response rating, Signalgrass (broadleaf signalgrass; 8 g ai/ha, preemergence) | Plant response rating, Signalgrass (broadleaf signalgrass; 16 g ai/ha, preemergence) | Plant response rating, Quackgrass (quackgrass; 8 g ai/ha, preemergence)
20: Plant response rating, Crabgrass, Large (large crabgrass; Preemergence, 16 g ai/ha)
35: Plant response rating, Kochia (kochia; Preemergence, 31 g ai/ha) | Plant response rating, Quackgrass (quackgrass; Preemergence, 16 g ai/ha)
30: Plant response rating, Sandbur (southern sandbur; 16 g ai/ha, preemergence)
60: Corn plant response rating (corn; [2]) | Cupgrass, Woolly plant response rating (woolly cupgrass; [2]) | Purple Nutsedge plant response rating (purple nutsedge; 62 g ai/ha, Preemergence) | Plant response rating, Purple Nutsedge (purple nutsedge; Preemergence, 31 g ai/ha) | Plant response rating, Barnyardgrass (barnyardgrass; Preemergence, 16 g ai/ha) | Plant response rating, Sandbur (southern sandbur; Preemergence, 31 g ai/ha) | Plant response rating, Ryegrass, Italian (Italian ryegrass; Preemergence, 31 g ai/ha)
98: Plant response rating (0 to 100), Corn (corn; Preemergence, 250 g ai/ha)
90: Plant response rating (0 to 100), Cupgrass, Woolly (woolly cupgrass; Preemergence, 250 g ai/ha) | Cupgrass, Woolly plant response rating (woolly cupgrass; [6]) | Surinam Grass plant response rating (Surinam grass; 62 g ai/ha, Preemergence) | Kochia plant response rating (kochia; 62 g ai/ha, Preemergence) | Barnyardgrass plant response rating (barnyardgrass; 62 g ai/ha, Preemergence) | Ryegrass, Italian plant response rating (Italian ryegrass; 62 g ai/ha, Preemergence)
40: Cupgrass, Woolly plant response rating (woolly cupgrass; [1]) | Plant response rating, Cupgrass, Woolly (woolly cupgrass; [4]) | Plant response rating, Bermudagrass (bermudagrass; Preemergence, 16 g ai/ha) | Plant response rating, Bermudagrass (bermudagrass; Preemergence, 31 g ai/ha)
95: Corn plant response rating (corn; [6]) | Crabgrass, Large plant response rating (large crabgrass; 62 g ai/ha, Preemergence) | Goosegrass plant response rating (goosegrass; 62 g ai/ha, Preemergence)
80: Bermudagrass plant response rating (bermudagrass; 62 g ai/ha, Preemergence) | Plant response rating, Goosegrass (goosegrass; Preemergence, 31 g ai/ha) | Plant response rating, Black Mustard (mustard; Preemergence, 31 g ai/ha) | Plant response rating, Barnyardgrass (barnyardgrass; Preemergence, 31 g ai/ha) | Sandbur plant response rating (southern sandbur; 62 g ai/ha, Preemergence)
100: Blackgrass plant response rating (blackgrass; [2]) | Plant response rating (0 to 100), Blackgrass (blackgrass; Preemergence, 250 g ai/ha) | Blackgrass plant response rating (blackgrass; [6]) | Black Mustard plant response rating (mustard; 62 g ai/ha, Preemergence)
50: Corn plant response rating (corn; [1]) | Signalgrass plant response rating (broadleaf signalgrass; 62 g ai/ha, Preemergence) | Plant response rating, Quackgrass (quackgrass; Preemergence, 31 g ai/ha)

Cn1nc(C(F)(F)F)c(CS(=O)(=O)c2ccc(Cl)c[n+]2[O-])c1OCC(F)(F)F [Compound 73]
0: Corn plant response rating (corn; [7]) | Corn plant response rating (corn; [8]) | Plant response rating, Corn (corn; [9])
30: Corn plant response rating (corn; [10])
100: Blackgrass plant response rating (blackgrass; [8]) | Blackgrass plant response rating (blackgrass; [10])
98: Blackgrass plant response rating (blackgrass; [7]) | Plant response rating, Blackgrass (blackgrass; [9])
60: Plant response rating, Cupgrass, Woolly (woolly cupgrass; [9])
80: Cupgrass, Woolly plant response rating (woolly cupgrass; [7])
85: Cupgrass, Woolly plant response rating (woolly cupgrass; [8]) | Cupgrass, Woolly plant response rating (woolly cupgrass; [10])

Cn1nc(C(F)(F)F)c(C[S+]([O-])c2cccc[n+]2[O-])c1OCC(F)(F)C(F)(F)F (stereo not drawn) [Compound 78]
20: Plant response rating, Corn (corn; [5]) | Plant response rating, Cupgrass, Woolly (woolly cupgrass; [5])
50: Plant response rating, Blackgrass (blackgrass; [4])
100: Plant response rating, Blackgrass (blackgrass; [5])
0: Plant response rating (0 to 100), Blackgrass (blackgrass; Postemergence, 31 g ai/ha) | Plant response rating, Blackgrass (blackgrass; [3]) | Plant response rating (0 to 100), Corn (corn; Postemergence, 31 g ai/ha) | Plant response rating, Corn (corn; [3]) | Plant response rating, Corn (corn; [4]) | Plant response rating (0 to 100), Cupgrass, Woolly (woolly cupgrass; Postemergence, 31 g ai/ha) | Plant response rating, Cupgrass, Woolly (woolly cupgrass; [3]) | Plant response rating, Cupgrass, Woolly (woolly cupgrass; [4])

Cn1nc(C(F)(F)F)c(CS(=O)(=O)c2cccc[n+]2[O-])c1OCC(F)F [Compound 81]
85: Plant response rating, Cupgrass, Woolly (woolly cupgrass; [9])
20: Corn plant response rating (corn; [7])
50: Plant response rating, Blackgrass (blackgrass; [9])
100: Corn plant response rating (corn; [8]) | Corn plant response rating (corn; [10]) | Cupgrass, Woolly plant response rating (woolly cupgrass; [7]) | Cupgrass, Woolly plant response rating (woolly cupgrass; [8]) | Cupgrass, Woolly plant response rating (woolly cupgrass; [10])
0: Plant response rating, Corn (corn; [9])

CC(C)c1cc[n+]([O-])c([S+]([O-])Cc2c(C(F)(F)F)nn(C)c2OC(F)F)c1 (stereo not drawn) [Compound 109]
40: Plant response rating, Blackgrass (blackgrass; [9])
80: Blackgrass plant response rating (blackgrass; [8]) | Blackgrass plant response rating (blackgrass; [10])
50: Plant response rating, Corn (corn; [9])
95: Corn plant response rating (corn; [8]) | Cupgrass, Woolly plant response rating (woolly cupgrass; [7])
70: Blackgrass plant response rating (blackgrass; [7]) | Corn plant response rating (corn; [7]) | Plant response rating, Cupgrass, Woolly (woolly cupgrass; [9])
98: Corn plant response rating (corn; [10]) | Cupgrass, Woolly plant response rating (woolly cupgrass; [8]) | Cupgrass, Woolly plant response rating (woolly cupgrass; [10])
